Results published in patent EP4741395A1, “NOVEL COMPOUND SENSITIVE TO NITROGEN MONOXIDE AND PHARMACEUTICAL COMPOSITION COMPRISING SAME” (Omniamed Co. Ltd, priority 2023, dated 2025).

Assays:
[1] = DAF-2 assay of NO scavenging activity (NO donor SNAP); type: biochemical; settings: DAF-2 10 µM, SNAP 100 µM, PBS, 3 hours, 37°C
Procedure: NO scavenging activity of the pharmaceutical composition sensitive to nitrogen monoxide including the compound according to each of Examples 1 to 22, 29 to 31, and 33 to 35 was evaluated through a DAF-2 assay.
Specifically, a reagent stock solution was made using DMSO (dimethyl sulfoxide) in order to prepare 5 mM of DAF-2, 100 mM of SNAP and 5 mM of the compound synthesized in each of the Examples, and for the reaction, the solution was added to a PBS (phosphate buffered saline) solution so that DAF-2, SNAP and the compound had final concentrations of 10 µM, 100 µM and the concentration of Table 1, respectively, followed by a reaction for 3 hours in a 37°C incubator.

[2] = system: Raw 264.7 cell line; experiment: NO scavenging activity in LPS-treated immune cells (Griess reagent); type: cell-based; settings: Mus musculus, RAW264.7, Raw 264.7, LPS 500 ng/mL, 24 hours, read-out: NO Scavenging Activity (%) (Mean±SD)
Procedure: Raw 264.7 cell line was seeded in a 48-well plate at a density of 8×10^4 cells/well, and cultured at 37°C in a DMEM medium including 10% FBS, 100 U/mL of penicillin and 100 µg/mL of streptomycin.
The medium was cultured overnight, and then replaced with a fresh medium including 10 µM of the pharmaceutical composition sensitive to nitrogen monoxide including the compound of each of Examples 1 to 30 and 500 ng/mL of LPS, and the fresh medium was cultured again for another 24 hours.
Lastly, in order to measure the amount of NO produced, the amount of NO2^- present in the cell culture medium was measured using a Griess reagent (sulfanilamide, N-1-naphthylethylenediamine dihydrochloride). Specifically, 100 µL of a Griess reagent was mixed with a mixture solution of 50 µL of the cell culture medium and 50 µL of PBS. The mixture solution was reacted for 10 minutes in a well plate, and absorbance thereof at 540 nm was measured.

[3] = system: splenocytes; experiment: NO scavenging activity in Concanavalin A-treated splenocytes (Griess assay); type: cell-based, C57BL/6 mouse; settings: Mus musculus, Splenocyte, Concanavalin A 5 µg/mL, 72 hours, read-out: NO Scavenging Activity (%) (Mean±SD)
Procedure: (§1) A spleen was isolated from an 8-week-old C57BL/6 mouse, and splenocytes were isolated using a physical method.
(§2) The separated splenocytes were diluted to a concentration of 5×10^6 cells/mL in a RPMI 1640 medium including 10% FBS, 100 U/mL of penicillin and 100 µg/mL of streptomycin, and the diluted splenocytes were dispensed at 500 µL/well into a 48-well plate and 100 µL/well into a 96-well plate, and cultured for 72 hours in an incubator. The splenocytes were treated with Concanavalin A (5 µg/mL) when dispensed to induce an immune response, and herein, […] of the pharmaceutical composition including the compound according to each of the Examples was also added thereto. After 72 hours, the supernatant was collected, and the level of remaining NO was checked through a Griess assay, and calculated by the following Equation 4.

[4] = system: IFN-γ; experiment: IFN-γ reduction activity in Concanavalin A-treated splenocytes (quantitative ELISA); type: cell-based, C57BL/6 mouse; settings: Mus musculus, Splenocyte, Concanavalin A 5 µg/mL, 72 hours, read-out: IFN-γ Reduction Activity (%) (Mean±SD)
Procedure: as §1, §2
NO is one of important inflammatory mediators, and may increase the level of inflammatory cytokine. Concanavalin A (5 µg/mL), which induces an immune response in splenocytes, and the compound of each of Examples were treated in a concentration-dependent manner to check whether the level of IFN-γ, a representative inflammatory cytokine, was reduced. The supernatant was collected 72 hours after the treatment, and analyzed using a quantitative enzyme-linked immunosorbent assay (Quantitative-ELISA).

[5] = system: splenocytes; experiment: Inhibitory activity on cell proliferation in splenocytes (CCK-8 analysis); type: cell-based, C57BL/6 mouse; settings: Mus musculus, Splenocyte, Concanavalin A 5 µg/mL, 72 hours, read-out: Inhibitory Activity on Cell Proliferation (%) (Mean±SD)
[6] = target: JAK 1 (Homo sapiens, UniProt P23458); experiment: JAK Human TK kinase enzymatic radiometric assay (Eurofins), JAK 1; settings: value close to 100 indicates low JAK activity of the compound
Excerpt: For the compounds of the Examples, JAK activity of each of the compounds was verified using the JAK Human TK Kinase Enzymatic Radiometric Kinase Profiler Assay service provided by Eurofins Scientific.
The activity was verified after inducing a reaction at the JAK 1, 2 and 3 active sites using radioactively labeled ATP.

[7] = DAF-2 assay of NO scavenging activity without and with H2O2 (ROS); type: biochemical; settings: SNAP 100 µM, DAF-2 10 µM, 3 hours, 37°C; for NO Scavenging Activity (%) (Mean±SD) With H2O2: H2O2 1 mM
Procedure: The pharmaceutical composition sensitive to nitrogen monoxide including the compound according to each of Examples 23 to 28 and 32 may have scavenging activity for reactive oxygen species (ROS). NO scavenging activity of the pharmaceutical composition was evaluated through a DAF-2 assay.
Specifically, to a 100 µM solution of SNAP, the compound synthesized in each of the Examples was added at a concentration of the following Table 2, and reacted. Then 10 µM of DAF-2 was added thereto, followed by a reaction for 3 hours in a 37°C incubator.
Additionally, a stock solution of H2O2 (10 M) was added to the reaction solution so that SNAP and H2O2 had final concentrations of 100 µM and 1 mM, respectively. Then, the compound synthesized in each of the Examples was added thereto at a concentration of the following Table 11, followed by a reaction in the same manner, and NO scavenging activity was calculated by Equation 1.

JAK 1, sequence (P23458 whole entry): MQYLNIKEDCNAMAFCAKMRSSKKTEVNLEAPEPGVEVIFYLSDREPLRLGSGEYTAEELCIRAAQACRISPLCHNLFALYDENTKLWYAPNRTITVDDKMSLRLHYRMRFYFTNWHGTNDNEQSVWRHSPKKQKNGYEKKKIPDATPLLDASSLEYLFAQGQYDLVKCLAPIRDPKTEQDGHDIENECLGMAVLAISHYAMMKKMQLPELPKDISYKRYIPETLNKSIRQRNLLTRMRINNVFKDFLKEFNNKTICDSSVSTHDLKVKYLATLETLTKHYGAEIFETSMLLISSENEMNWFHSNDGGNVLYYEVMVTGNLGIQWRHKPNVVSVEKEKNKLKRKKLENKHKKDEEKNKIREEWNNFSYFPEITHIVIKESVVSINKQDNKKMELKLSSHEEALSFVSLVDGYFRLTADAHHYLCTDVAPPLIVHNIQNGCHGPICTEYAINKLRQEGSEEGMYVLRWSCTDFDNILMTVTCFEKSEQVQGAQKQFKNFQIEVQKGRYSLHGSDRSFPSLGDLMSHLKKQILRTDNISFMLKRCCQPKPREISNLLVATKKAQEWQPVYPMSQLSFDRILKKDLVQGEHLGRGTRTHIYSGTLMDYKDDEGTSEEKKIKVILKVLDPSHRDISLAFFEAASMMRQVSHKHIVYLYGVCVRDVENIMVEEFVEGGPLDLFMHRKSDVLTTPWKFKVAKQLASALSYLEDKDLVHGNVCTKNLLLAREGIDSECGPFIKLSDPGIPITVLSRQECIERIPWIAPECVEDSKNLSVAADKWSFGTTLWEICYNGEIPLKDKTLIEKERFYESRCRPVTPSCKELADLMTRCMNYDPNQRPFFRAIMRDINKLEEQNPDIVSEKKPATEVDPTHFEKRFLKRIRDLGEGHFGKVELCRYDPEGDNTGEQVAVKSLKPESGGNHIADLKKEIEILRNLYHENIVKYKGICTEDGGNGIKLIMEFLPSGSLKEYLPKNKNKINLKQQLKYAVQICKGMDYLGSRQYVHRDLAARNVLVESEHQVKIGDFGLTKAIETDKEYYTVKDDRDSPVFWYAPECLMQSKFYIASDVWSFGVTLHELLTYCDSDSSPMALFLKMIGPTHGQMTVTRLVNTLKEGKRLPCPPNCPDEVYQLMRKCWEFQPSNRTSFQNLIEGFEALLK

JAK 1 Activity ([6]; 0.1 nM)	JAK 1 Activity ([6]; 1 nM)	JAK 1 Activity ([6]; 10 nM)	JAK 1 Activity ([6]; 100 nM)	Structure (SMILES)	NO Scavenging Activity (%) (Mean±SD) ([1]; compound 1 µM)	NO Scavenging Activity (%) (Mean±SD) ([1]; compound 5 µM)	NO Scavenging Activity (%) (Mean±SD) ([1]; compound 10 µM)	activity at 10 µM [2]	activity at 10 µM [3]	activity at 10 µM [4]	inhibition at 10 µM [5]	NO Scavenging Activity (%) (Mean±SD) Without H2O2 ([7]; compound 1 µM)	NO Scavenging Activity (%) (Mean±SD) With H2O2 ([7]; compound 1 µM)	NO Scavenging Activity (%) (Mean±SD) Without H2O2 ([7]; compound 5 µM)	NO Scavenging Activity (%) (Mean±SD) With H2O2 ([7]; compound 5 µM)	NO Scavenging Activity (%) (Mean±SD) Without H2O2 ([7]; compound 10 µM)	NO Scavenging Activity (%) (Mean±SD) With H2O2 ([7]; compound 10 µM)
97	105	102	85	C[C@@H]1CCN(C(=O)CC#N)C[C@@H]1N(C)c1ncnc2c1ccn2C(=O)N(C)CCN(C)C(=O)Nc1cc(N(C)C)ccc1N [Example 21, N-(2-(3-(2-amino-5-(dimethylamino)phenyl)-1-methylureido)ethyl)-4-(((3R,4R)-1-(2-cyanoacetyl)-4-methylpiperidin-3-yl) (methyl)amino)-N-methyl-7H-pyrrolo[2,3-d]pyrimidine-7-carboxamide]	2.57± 1.66%	38.13 ±1.01%	66.27 ±0.14%	61.2 ± 0.15%	52.4 ± 0.67%	98.1 ± 0.03%	48.3 ± 3.72%	–	–	–	–	–	–
94	90	100	83	C[C@@H]1CCN(C(=O)CC#N)C[C@@H]1N(C)c1ncnc2c1ccn2C(=O)N(C)CCN(C)C(=O)Nc1cc(N(C)C)ccc1NC(=O)OCc1ccc(B(O)O)cc1 [Example 23, (4-((((2-(3-(2-(4-(((3R,4R)-1-(2-cyanoacetyl)-4-methylpiperidin-3-yl)(methyl)amino)-N-methyl-7H-pyrrolo[2,3-d]pyrimidine-7-carboxamido)ethyl)-3-methylureido)-4-(dimethylamino)phenyl)carbamoyl)oxy)methyl)phenyl)boronic acid]	–	–	–	16.8 ± 0.7%	19.5 ± 0.65%	68 ± 0.45%	11.8 ± 2.08%	21.08 ±0.77%	25.76 ±6.11%	39.33 ±8.29%	64.84 ±1.94%	52.96 ±6.23%	83.96 ±0.29%
–	–	–	–	Cc1ccc(NC(=O)OCc2ccc(B3OC(C)(C)C(C)(C)O3)cc2)c(NC(=O)n2ccc3c(N(C)[C@H]4CN(C(=O)CC#N)CC[C@H]4C)ncnc32)c1 [Example 26, 4-(4,4,5,5-tetramethyl-1,3,2-dioxaborolan-2-yl)benzyl (2-(4-(((3R,4R)-1-(2-cyanoacetyl)-4-methylpiperidin-3-yl) (methyl)amino)-7H-pyrrolo[2,3-d]pyrimidine-7-carboxamido)-4-methylphenyl)carbamate]	–	–	–	73.7 ± 0.33%	100%	97.4 ± 0.1%	75.6 ± 0.96%	–	–	–	–	42.98 ±2.51%	92.96 ±0.04%
–	–	–	–	COc1ccc(NC(=O)OCc2ccc(B3OC(C)(C)C(C)(C)O3)cc2)c(NC(=O)n2ccc3c(N(C)[C@H]4CN(C(=O)CC#N)CC[C@H]4C)ncnc32)c1 [Example 27, 4-(4,4,5,5-tetramethyl-1,3,2-dioxaborolan-2-yl)benzyl (2-(4-(((3R,4R)-1-(2-cyanoacetyl)-4-methylpiperidin-3-yl) (methyl)amino)-7H-pyrrolo[2,3-d]pyrimidine-7-carboxamido)-4-methoxyphenyl)carbamate]	–	–	–	59.3 ± 0.06%	77.6 ± 1.24%	74.6 ± 2.41%	81.1 ± 9.03%	–	–	–	–	59.31 ±0.55%	97.09 ±0.01%
–	–	–	–	C[C@@H]1CCN(C(=O)CC#N)C[C@@H]1N(C)c1ncnc2c1ccn2C(=O)Nc1cc2c(cc1NC(=O)OCc1ccc(B3OC(C)(C)C(C)(C)O3)cc1)n(C)c(=O)n2C [Example 28, 4-(4,4,5,5-tetramethyl-1,3,2-dioxaborolan-2-yl)benzyl (6-(4-(((3R,4R)-1-(2-cyanoacetyl)-4-methylpiperidin-3-yl) (methyl)amino)-7H-pyrrolo[2,3-d]pyrimidine-7-carboxamido)-1,3-dimethyl-2-oxo-2,3-dihydro-1H-benzo[d]imidazol-5-yl)carbamate]	–	–	–	49.8 ± 0.43%	92 ± 0.56%	100%	80.7 ± 7.12%	3.73± 0.57%	76.23 ±0.94%	13.25 ±0.69%	98.01 ±0.04%	14.18 ±0.62%	98.34 ±0.05%
–	–	–	–	CC[C@@H]1CN(C(=O)NCC(F)(F)F)C[C@@H]1c1cnc2cnc3c(ccn3C(=O)Nc3ccccc3N)n12 [Example 29, N-(2-aminophenyl)-8-((3R,4S)-4-ethyl-1-((2,2,2-trifluoroethyl)carbamoyl)pyrrolidin-3-yl)-3H-imidazo[1,2-a]pyrrolo[2,3-e]pyrazine-3-carboxamide]	3.68± 7.63%	1.71± 4.16%	25.18 ±3.14%	90.1 ± 0.74%	88.5 ± 0.47%	100%	78 ± 6.9%	–	–	–	–	–	–
–	–	–	–	CC[C@@H]1CN(C(=O)NCC(F)(F)F)C[C@@H]1c1cnc2cnc3c(ccn3C(=O)Nc3ccc(N(C)C)cc3N)n12 [Example 30, N-(2-amino-4-(dimethylamino)phenyl)-8-((3R,4S)-4-ethyl-1-((2,2,2-trifluoroethyl)carbamoyl)pyrrolidin-3-yl)-3H-imidazo[1,2-a]pyrrolo[2,3-e]pyrazine-3-carboxamide]	83.14 ±2.29%	86.44 ±1.93%	88.19 ±1.75%	91.6 ± 0.68%	98.1 ± 0.09%	91.5 ± 1.37%	55 ± 8.48%	–	–	–	–	–	–
